# Experiments:
# [1] = tested on: KM mice; settings: oral gavage three times in one day, observed 7 days
# [2] = tested on: histamine and acetylcholine induced asthma guinea pigs; assay: Anti-asthmatic effect of CS-0090-2 on histamine and acetylcholine induced asthma guinea pigs; format: in vivo, guinea pig
# [3] = tested on: guinea pig asthma models; assay: Anti-asthmatic effect of CS-0090-1 on guinea pig asthma models (histamine/acetylcholine atomization); format: in vivo
# [4] = tested on: histamine and acetylcholine induced asthma guinea pigs; assay: Anti-asthmatic effect of CS-0090-4 on histamine and acetylcholine induced asthma guinea pigs; format: in vivo, guinea pig
# Protocol: 0.2 g choline and 0.01 g histamine were weighed and put into beakers respectively, and then respectively each beaker were added with 10 ml distilled water and blended to homogeneity.
# The healthy guinea pigs with body weight of 180 to 220 g were taken and placed in a closed glass bell jar one by one firstly; after the guinea pigs became quiet, an atomization apparatus was started to spray an asthma-induced medical liquid (a solution of 2% acetylcholine chloride and 0.1% histamine phosphate mixed in equal volume) until the guinea pigs tumbled, then the pulverization was stopped, and the asthma latent period (time period from the beginning of pulverization to onset of asthma and dyspnea, till convulsions and tumble) was observed, and qualified animals having a asthma latent period ≤120 s were screened.
# The qualified guinea pigs screened were randomly divided into four groups, which were a high-dosage group, a median-dosage group, a low-dosage group, and a positive control group. The guinea pigs in each group were subjected to oral gavage administration continuously for 7 days with a dosage of 1 ml/100 g. The induced asthma latent period was determined in 1 h after administration on the last day.
# [5] = 3 mg·kg^−1 group, self-control baseline
structure (smiles),measurement,setting,value
CC(C)(O)c1ccccc1CC[C@@H](SCC1(CC(=O)O)CC1)c1cccc(/C=C/c2ccc3ccc(Cl)cc3n2)c1 [Montelukast],maximum dosage,[1],2280 mg/kg
same,Induced asthma latent period (s) within 6 min Before administration,[2]; [5],48.2 ± 4.6 s
same,Induced asthma latent period (s) within 6 min After administration,"[2]; 3 mg·kg^−1 oral gavage 7 days, 1 h after last dose, capped at 360 s",59.8 ± 7.1 s
same,Induced asthma latent period before administration,[3]; [5],48.17 ± 4.62 s
same,Induced asthma latent period after administration,"[3]; 3 mg·kg^−1 oral gavage once a day for 7 days, 1 h after last dose, capped at 6 min",63.00 ± 7.13 s
same,Asthma latent period before administration,[4]; [5],48.17 ± 4.62
same,Asthma latent period after administration,"[4]; 3 mg·kg^−1 oral gavage 7 days, 1 h after last dose",59.83 ± 7.08
